Columns and labels:
[1] = target: T1, MIF (Homo sapiens, UniProt P14174); assay: Nuclease assay of Example 3 (MIF inhibitory activity, Table 4); format: biochemical; parameters: (%) inhibition of MIF nuclease activity: concentration or dose not given beside the values; details: for (%) inhibition of MIF nuclease activity: nuclease assay of Example 3
T1 sequence (P14174 1-115): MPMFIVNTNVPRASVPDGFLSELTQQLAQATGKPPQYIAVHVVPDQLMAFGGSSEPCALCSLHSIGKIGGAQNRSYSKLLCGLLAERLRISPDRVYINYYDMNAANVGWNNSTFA
Procedure, shortened: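 Human genomic DNA (200 ng), pcDNA (200 ng) or PS^30-type substrates (1 μM) were incubated with MIF (0.25-8 μM final) in 10 mM Tris-HCl pH 7.0, 10 mM MgCl2, 1 mM DTT at 37 °C for 1 h (pcDNA, small substrates) or 4 h (genomic DNA). Cleavage was assessed by agarose or PAGE electrophoresis with EtBr staining and chemiluminescent detection of biotin-labelled DNA.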

[2] = test system: HeLa cells or neuronal cells; assay: Cell death assay of Example 3 (MNNG, alamarBlue; protection against parthanatos, Table 4); format: cell-based; details: 1 μM test compound; for (%) inhibition of cell death: MNNG-induced cell death, alamarBlue
Procedure, shortened: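 HeLa or neuronal cells (1×10^4/well) were pretreated 1 h at 37° C with 1 μM compound, exposed to MNNG for 15 min, washed, then re-incubated 18 h with 1 μM compound. Viability was read by alamarBlue fluorescence (ex 560/em 590 nm). Cell death was expressed relative to control wells.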

Structure (SMILES)	(%) inhibition of MIF nuclease activity [1] [%]	(%) inhibition of cell death [2] [%]	MIF nuclease activity [1]	protection against parthanatos (cell death) [2]	(%) inhibition of cell death ([2]; 1 µM) [%]
COc1ccc(CC[C@H]2OC(=O)[C@@H]3CCCCN3C(=O)C(=O)C(C)(C)COC(=O)C=CCCN(C)C(=O)[C@H]3CCCN3C(=O)[C@H](COC(C)(C)C)N(C)C(=O)C(c3ccccc3)NC(=O)[C@H](C)N(C)C(=O)COc3cccc2c3)cc1OC (some centres unmarked) [compound 91]	25.8	62.7	–	–	–
COc1ccc(CC[C@H]2OC(=O)[C@@H]3CCCCN3C(=O)C(=O)C(C)(C)COC(=O)C=CCCN(C)C(=O)[C@@H]3CCCCN3C(=O)[C@H](COC(C)(C)C)N(C)C(=O)C(c3ccccc3)NC(=O)[C@H](C)N(C)C(=O)COc3cccc2c3)cc1OC (some centres unmarked) [compound 92]	9.0	72.1	do not inhibit MIF nuclease activity	protect against parthanatos	–
COc1ccc(CC[C@H]2OC(=O)[C@@H]3CCCCN3C(=O)C(=O)C(C)(C)COC(=O)C=CCCN(C)C(=O)[C@@H]3CC(O)CN3C(=O)[C@H](COC(C)(C)C)N(C)C(=O)C(c3ccccc3)NC(=O)[C@H](C)N(C)C(=O)COc3cccc2c3)cc1OC (some centres unmarked) [compound 93]	14.6	66.8	–	–	–
COc1ccc(CC[C@H]2OC(=O)[C@@H]3CCCCN3C(=O)C(=O)C(C)(C)COC(=O)C=CCCN(C)C(=O)[C@H](C)N(C)C(=O)[C@H](COC(C)(C)C)N(C)C(=O)C(c3ccccc3)NC(=O)[C@H](C)N(C)C(=O)COc3cccc2c3)cc1OC (some centres unmarked) [compound 94]	12.0	12.1	–	–	–
COc1ccc(CC[C@H]2OC(=O)[C@@H]3CCCCN3C(=O)C(=O)C(C)(C)COC(=O)C=CCCN(C)C(=O)[C@@H]3CCCN3C(=O)[C@H](COCc3ccccc3)N(C)C(=O)C(c3ccccc3)NC(=O)[C@H](C)N(C)C(=O)COc3cccc2c3)cc1OC (some centres unmarked) [compound 96]	32.7	69.1	–	–	–
COc1ccc(CC[C@H]2OC(=O)[C@@H]3CCCCN3C(=O)C(=O)C(C)(C)COC(=O)C=CCCN(C)C(=O)[C@@H]3CCCN3C(=O)[C@H](COC(C)(C)C)N(C)C(=O)[C@H](C)NC(=O)[C@H](C)N(C)C(=O)COc3cccc2c3)cc1OC [compound 100]	13.4	26.1	–	–	–
COc1ccc(CC[C@H]2OC(=O)[C@@H]3CCCCN3C(=O)C(=O)C(C)(C)COC(=O)C=CCCN(C)C(=O)[C@@H]3CCCN3C(=O)[C@H](COC(C)(C)C)N(C)C(=O)[C@H](Cc3ccccc3)NC(=O)[C@H](C)N(C)C(=O)COc3cccc2c3)cc1OC [compound 101]	9.1	31.5	–	–	–
COc1ccc(CC[C@H]2OC(=O)[C@@H]3CCCCN3C(=O)C(=O)C(C)(C)COC(=O)C=CCCN(C)C(=O)[C@@H]3CCCN3C(=O)[C@H](COC(C)(C)C)N(C)C(=O)C(c3ccccc3)NC(=O)[C@H](C)N(C)C(=O)COc3cccc2c3)cc1OC (some centres unmarked) [compound 102]	59.5	–	–	–	77.7
COc1ccc(CC[C@H]2OC(=O)[C@@H]3CCCCN3C(=O)C(=O)C(C)(C)COC(=O)C=CCCN(C)C(=O)[C@@H]3CCCN3C(=O)[C@H](COC(C)(C)C)N(C)C(=O)[C@H](Cc3ccc(F)cc3)NC(=O)[C@H](C)N(C)C(=O)COc3cccc2c3)cc1OC [compound 103]	16.8	22.5	–	–	–
COc1ccc(CC[C@H]2OC(=O)[C@@H]3CCCCN3C(=O)C(=O)C(C)(C)COC(=O)C=CCCN(C)C(=O)[C@@H]3CCCN3C(=O)[C@H](COC(C)(C)C)N(C)C(=O)[C@H](Cc3ccncc3)NC(=O)[C@H](C)N(C)C(=O)COc3cccc2c3)cc1OC [compound 104]	13.2	20.4	–	–	–
COc1ccc(CC[C@H]2OC(=O)[C@@H]3CCCCN3C(=O)C(=O)C(C)(C)COC(=O)C=CCCN(C)C(=O)[C@@H]3CCCN3C(=O)[C@H](COC(C)(C)C)N(C)C(=O)C(c3ccccc3)NC(=O)[C@@H](C)N(C)C(=O)COc3cccc2c3)cc1OC (some centres unmarked) [compound 106]	11.9	13.1	–	–	–
COc1ccc(CC[C@H]2OC(=O)[C@@H]3CCCCN3C(=O)C(=O)C(C)(C)COC(=O)C=CCCN(C)C(=O)[C@@H]3CCCN3C(=O)[C@H](COC(C)(C)C)N(C)C(=O)C(c3ccccc3)NC(=O)CN(C)C(=O)COc3cccc2c3)cc1OC (some centres unmarked) [compound 107]	20.0	–	–	–	15.1
COc1ccc(CC[C@H]2OC(=O)[C@@H]3CCCCN3C(=O)C(=O)C(C)(C)COC(=O)C=CCCN(C)C(=O)[C@@H]3CCCN3C(=O)[C@H](CO)N(C)C(=O)C(c3ccccc3)NC(=O)C(CO)N(C)C(=O)COc3cccc2c3)cc1OC (some centres unmarked) [compound 108]	4.2	20.4	–	–	–
COc1cc(F)c(CC[C@H]2OC(=O)[C@@H]3CCCCN3C(=O)C(=O)C(C)(C)COC(=O)C=CCCN(C)C(=O)[C@@H]3CCCN3C(=O)[C@H](COC(C)(C)C)N(C)C(=O)C(c3ccccc3)NC(=O)[C@H](C)N(C)C(=O)COc3cccc2c3)cc1OC (some centres unmarked) [compound 109]	9.3	52.9	–	–	–
COc1cc(F)c(CCC2OC(=O)[C@@H]3CCCCN3C(=O)C(=O)C(C)(C)COC(=O)C=CCCN(C)C(=O)[C@@H]3CCCN3C(=O)[C@H](COC(C)(C)C)N(C)C(=O)C(c3ccccc3)NC(=O)[C@H](C)N(C)C(=O)COc3cccc2c3)cc1OC (some centres unmarked) [compound 110]	20.9	59.3	–	–	–
COc1cc(CC[C@H]2OC(=O)[C@@H]3CCCCN3C(=O)C(=O)C(C)(C)COC(=O)C=CCCN(C)C(=O)[C@@H]3CCCN3C(=O)[C@H](COC(C)(C)C)N(C)C(=O)C(c3ccccc3)NC(=O)[C@H](C)N(C)C(=O)COc3cccc2c3)cc(F)c1OC (some centres unmarked) [compound 111]	6.8	48.9	–	–	–
COc1ccc(CC[C@H]2OC(=O)[C@@H]3CCCCN3C(=O)C(=O)C(C)(C)COC(=O)C=CCCN(C)C(=O)[C@@H]3CCCN3C(=O)[C@H](COC(C)(C)C)N(C)C(=O)C(c3ccccc3)NC(=O)[C@H](C)N(C)C(=O)COc3ccc(F)c2c3)cc1OC (some centres unmarked) [compound 112]	19.2	48.3	–	–	–
COc1cc(CC[C@H]2OC(=O)[C@@H]3CCCCN3C(=O)C(=O)C(C)(C)COC(=O)C=CCCN(C)C(=O)[C@@H]3CCCN3C(=O)[C@H](COC(C)(C)C)N(C)C(=O)C(c3ccccc3)NC(=O)[C@H](C)N(C)C(=O)COc3cccc2c3)c(OC)c(OC)c1 (some centres unmarked) [compound 113]	26.8	66.1	–	–	–
COc1ccc(CC[C@H]2OC(=O)[C@@H]3CCCCN3C(=O)C(=O)C(C)(C)COC(=O)C=CCCN(C)C(=O)[C@@H]3CCCN3C(=O)[C@H](COC(C)(C)C)N(C)C(=O)C(c3ccccc3)NC(=O)[C@H](C)N(C)C(=O)COc3cc2ccc3F)cc1OC (some centres unmarked) [compound 114]	−2.4	44.9	–	–	–
COc1cc(CC[C@H]2OC(=O)[C@@H]3CCCCN3C(=O)C(=O)C(C)(C)COC(=O)C=CCCN(C)C(=O)[C@@H]3CCCN3C(=O)[C@H](COC(C)(C)C)N(C)C(=O)C(c3ccccc3)NC(=O)[C@H](C)N(C)C(=O)COc3cccc2c3)cc(OC)c1OC (some centres unmarked) [compound 115]	8.7	47.9	–	–	–
COc1cc(O)c(CC[C@H]2OC(=O)[C@@H]3CCCCN3C(=O)C(=O)C(C)(C)COC(=O)C=CCCN(C)C(=O)[C@@H]3CCCN3C(=O)[C@H](COC(C)(C)C)N(C)C(=O)C(c3ccccc3)NC(=O)[C@H](C)N(C)C(=O)COc3cccc2c3)cc1OC (some centres unmarked) [compound 116]	−4.7	50.9	–	–	–
COc1ccc(CC[C@H]2OC(=O)[C@@H]3CCCCN3C(=O)C(=O)C(C)(C)COC(=O)C=CCCN(C)C(=O)[C@@H]3CCCN3C(=O)[C@H](COC(C)(C)C)N(C)C(=O)C(c3ccccc3)NC(=O)[C@H](C)N(C)C(=O)COc3cccc2c3)c(F)c1OC (some centres unmarked) [compound 117]	−5.1	51.8	–	–	–
COc1ccc(CC[C@H]2OC(=O)[C@@H]3CN(C)CCN3C(=O)C(=O)C(C)(C)COC(=O)C=CCCN(C)C(=O)[C@@H]3CCCN3C(=O)[C@H](COC(C)(C)C)N(C)C(=O)C(c3ccccc3)NC(=O)[C@H](C)N(C)C(=O)COc3cccc2c3)cc1OC (some centres unmarked) [compound 118]	9.0	50.8	–	–	–
COc1ccc(CC[C@H]2OC(=O)[C@@H]3CCCCN3C(=O)C(=O)C(C)(C)COC(=O)C=CCCN(C)C(=O)[C@@H]3CCCN3C(=O)[C@H](COC(C)(C)C)N(C)C(=O)C(c3ccccc3)NC(=O)[C@H](C)N(C)C(=O)COc3cccc2c3)c(O)c1OC (some centres unmarked) [compound 119]	19.7	60.7	–	–	–
